According to US20240182603A1, “SULFUR-S[…] TO STABILIZE OLIGOSACCHARIDE” (Brandeis University, priority 2021, published 2024):

Tested on: HIV broadly neutralizing antibody 2G12
Experiment: STD-NMR (Saturation Transfer Difference NMR) binding analysis with 2G12 IgG
Settings: for mannose unit showing greatest saturation transfer (STD): pH 6.7 deuterated phosphate buffered saline, saturation time 3 s; for recognition by neutralizing HIV antibody 2G12: summary in Discussion, contacts similar to natural oligomannose
Description: With these S-Man3 and S-Man4 derivatives in hand, their recognition by HIV broadly neutralizing antibody 2G12 was studied. 2G12 binds primarily to the linear trimannose (D1) arm of Man9GlcNAc2. […] The temperature was 298 K for S-Man3 14 and 293 K for S-Man4 21 in order to move the HDO peak to avoid covering an anomeric resonance. The experiments were performed without suppression of the residual HDO signal. On-resonance frequencies of 0.86 ppm δ (protein aliphatic) and 7 ppm δ (protein aromatic) were applied for S-Man3 14 and […] S-Man4 21, respectively, in both cases with a saturation time of 3 s and an off-resonance frequency of 40 ppm δ.
In the case of the Man4 derivative, negligible STD is observed for the reducing-terminal mannose unit.

[1] = 25 μM 2G12 IgG, 200:1 sugar:antibody

Compound	mannose unit showing greatest saturation transfer (STD) [1]	recognition by neutralizing HIV antibody 2G12	STD observed for the reducing-terminal mannose unit (25 μM 2G12 IgG, 200:1 sugar:antibody, 293 K)
NCCO[C@H]1O[C@H](CO)[C@@H](O)[C@H](O)[C@@H]1S[C@H]1O[C@H](CO)[C@@H](O)[C@H](O)[C@@H]1O[C@H]1O[C@H](CO)[C@@H](O)[C@H](O)[C@@H]1O [compound 14, 2-aminoethyl-[α-D-mannopyranosyl-(1→2)-2-S-{α-D-mannopyranosyl-(1→2)}]-α-D-mannopyranoside]	greatest saturation transfer is seen for the non-reducing mannose unit	recognized	–
[N-]=[N+]=NC1CCC(O[C@@H]2OC(CO)[C@@H](O)[C@H](O[C@H]3OC(CO)[C@@H](O)[C@H](O)C3O[C@H]3OC(CO)[C@@H](O)[C@H](O)C3S[C@H]3OC(CO)[C@@H](O)[C@H](O)C3O)C2O)CC1 (stereo partly drawn) [compound 21, Trans-azidocyclohexyl-3-O-[{α-D-mannopyranosyl-(1→2)}-2-O-{α-D-mannopyranosyl-(1→2)}-2-S-{α-D-mannopyranosyl-(1→2)}]-β-D-mannopyranoside]	greatest saturation transfer is seen for the non-reducing mannose unit	recognized	negligible
